Source: patent US11083717B2, “Compositions and methods for drug sensitization of parasites” (The Texas A&M University System, priority 2015, dated 2021)
In brackets after ≈: the same amount, converted by molar mass. Read-outs that look alike come from different tables or passages of the source.

Tests used:
[1] = test system: Cryptosporidium parvum (CP); assay: Cell culture model of Cryptosporidium parvum infection in HCT-8 cells, real-time qRT-PCR; type: cell-based; details: Cryptosporidium parvum
Summary of the method: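 HCT-8 monolayers were infected with C. parvum Iowa oocysts (1.5×10^4/well) for 3 h, then compounds were added after medium exchange and cells were incubated 41 h more (44 h total, 37 °C). Parasite Cp18S rRNA was measured by one-step SYBR qRT-PCR of lysates, normalized to host Hs18S, and % inhibition at the stated µM was derived from a standard curve.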

[2] = HCLint in vitro intrinsic clearance, human (HLM); type: in vitro ADME
Cryptosporidium parvum = test system: Cryptosporidium parvum
Protocol: The anticryptosporidial activity of the in vitro inhibitors was assessed in the IL-12 knockout mouse model that resembles the acute human disease (Ehigiator H N, Romagnoli P, Borgelt K, Fernandez M, McNair N, Secor W E, Mead J R. 2005. Mucosal cytokine and antigen-specific responses to Cryptosporidium parvum in IL-12p40 KO mice. Parasite Immunol. 27: 17-28; Campbell L D, Stewart J N, Mead J R. 2002. Susceptibility to Cryptosporidium parvum infections in cytokine- and chemokine-receptor knockout mice. J. Parasitol. 88:1014-1016). The protocol was approved by the Institutional Animal Care and Use Committees of Emory University, the AtlantaVAMedical Center, and Brandeis University. Mice (6 to 10 per group) were inoculated with 1,000 purified CP oocysts (Iowa isolate, from cattle). Treatment by gavage began 4 h postinfection with either vehicle (5% dimethyl sulfoxide (DMSO) in canola oil), 50-100 mg/kg compound, or 2,000 mg/kg paromomycin. Compounds were given for 7 days, and mice were sacrificed on day 8 (peak infection). Parasite load was quantified by fluorescence-activated cell sorting (FACS) assays for the presence of the oocysts in the feces at days 0, 4, and 7. Fecal pellets from individual mice were routinely collected daily and homogenized in adjusted volumes of 2.5% potassium dichromate. Samples were processed individually. Aliquots (200 ul) of vortexed samples were processed over microscale sucrose gradients as previously described (Arrowood M J, Hurd M R, Mead J R. 1995. A new method for evaluating experimental cryptosporidial parasite loads using immunofluorescent flowcytometry. J. Parasitol. 81:404-409). The oocyst-containing fraction was collected, washed, and treated with monoclonal antibody (OW5O-FITC) for 20 min. Samples were adjusted to 600 ul, and a portion (100 ul) was assayed with a 102-s sampling interval using logical gating of forward/side scatter and OW5O-FITC fluorescence signal on a Becton, Dickinson FACScan flow cytometer. Flow cytometry data were evaluated by analysis of variance (KaleidaGraph (Synergy Software, Reading Pa.); Microsoft Excel (Microsoft Corporation, Redmond, Wash.)).
NZ-366 (50 mg/kg) and NZ-369 (100 mg/kg) were administered via gavage in a single daily dose to IL-12 knockout mice that were infected with 1,000 CP oocysts. Additional control groups included those treated with single daily doses of vehicle, and paromomycin (Prm) (2,000 mg/kg), by oral gavage.

[3] = Plasma pharmacokinetics in mouse; type: in vivo, female Balb/c mouse; details: for AUC(0-t): read-out: AUC0-24 (converted)
Protocol: To investigate the relationship between anticryptosporidial activity and systemic exposure the plasma pharmacokinetics for NZ-369 were measured. […] The pharmacokinetics of NZ-369 following single intravenous (IV) and oral administration (PO) at 3 and 10 mg free base/kg respectively to the female Balb/c mouse.

[4] = NZ-366 50 mg/kg, NZ-369 100 mg/kg, paromomycin 2,000 mg/kg
[5] = female, Balb/c, mouse, plasma, 3 mg/kg, IV 3 mg free base/kg, single dose
[6] = female, Balb/c, mouse, plasma, 10 mg/kg, PO 10 mg free base/kg, single dose

CNC(=O)C(C)c1ccc(Oc2nc3ccc(Cl)cc3s2)cc1 (centres unmarked) [NZ-369, 2-{4-[(6-chloro-1,3-benzothiazol-2-yl)oxy]phenyl}-N-methylpropanamide]
MIC50 ([1]; 44 h, CP in HCT-8 cells, 44 h infection, 50% reduction of parasite growth vs control, NA: not active, read-out: MIC50): 50 to 80 nM (≈ 0.0173 to 0.0277 µg/mL)
MIC50 ([1]; read-out: MIC50 (nM) (CP)): 80 nM (≈ 0.0277 µg/mL)
HCLint (mL/min/g liver), HLM [2]: HLM = 0.69 mL/min/g liver
Mouse Model (Mead) DPI7 (Cryptosporidium parvum; @100 mg/kg, day 7 post infection): DPI7 = 70%
overt toxicity in the treated infected mice (Cryptosporidium parvum; NZ-366 50 mg/kg, NZ-369 100 mg/kg, 7 days): no overt toxicity
anticryptosporidial activity, fecal oocysts day 7 post infection (Cryptosporidium parvum; NZ-366 50 mg/kg, NZ-369 100 mg/kg, gavage, single daily dose, FIG. 1): have anticryptosporidial activity
effectiveness compared with paromomycin after a single dose (Cryptosporidium parvum; [4]): more effective than paromomycin
effectiveness compared with paromomycin over the course of the study (Cryptosporidium parvum; [4]): equally as effective as paromomycin
Clb ([3]; IV 3 mg free base/kg, single dose): 6.6 mL/min/kg
half-life [3, 5]: 3.4 h
AUC(0-t) [3, 5]: 7540 ng·h/mL
Vd ([3]; female, Balb/c, mouse, plasma, 3 mg/kg, IV 3 mg free base/kg, single dose, read-out: Vdss): 1.7 L/kg
Cmax [3, 6]: 2160 ng/mL
Tmax [3, 6]: 2 h
AUC(0-t) [3, 6]: 19800 ng·h/mL
bioavailability ([3]; female, Balb/c, mouse, plasma, 10 mg/kg, printed in the IV column, PO 10 vs IV 3 mg free base/kg): 78.8%
systemic pharmacokinetics (in words) ([3]; plasma): excellent systemic pharmacokinetics
